According to paper PMC7154053, “Chemical, Metabolic, and Cellular Characterization of a FtsZ Inhibitor Effective Against Burkholderia cenocepacia” (Frontiers in Microbiology, 2020):
≈ marks a conversion by molar mass, not a printed value. Read-outs that look alike come from different tables or passages of the source.

Legend:
P. aeruginosa PAO1 = experiment: MIC, 2-fold microdilution, resazurin method; type: cell-based; details: Pseudomonas aeruginosa, PAO1
Procedure: (§1) Burkholderia cenocepacia strains, Escherichia coli ATCC 25922, Pseudomonas aeruginosa PAO1, and Staphylococcus aureus ATCC 25923 were grown in Luria-Bertani (LB) medium (Difco), if not differently specified, with shaking at 200 rpm, or on LB agar, at 37°C.
(§2) The microtiter plates were incubated at 37°C for 48 (for B. cenocepacia) or 24 h (for all the other strains) and growth was determined by the resazurin method (Martin et al., [2006]). A solution of resazurin sodium salt (Sigma Aldrich) was prepared at 0.01% in distilled water and filter-sterilized. Thirty microliter of resazurin solution were added to each well after 1 or 2 days of incubation at 37°C, and the microtiters were re-incubated at the same temperature for 4 h. The MIC was defined as the lowest concentration of the drug that prevented a change in color from blue to pink, which indicates bacterial growth.
(§3) Three independent biological replicates were used for each MIC determination.

E. coli ATCC 25922 = experiment: MIC, 2-fold microdilution, resazurin method; type: cell-based; details: Escherichia coli, ATCC25922
Procedure: as §1, §2, §3

S. aureus ATCC 25923 = experiment: MIC, 2-fold microdilution, resazurin method; type: cell-based, Staphylococcus aureus; details: for MIC: Staphylococcus aureus, ATCC25923; for spectrum of activity, in words: S. aureus vs Gram-negative species
Procedure: as §1, §2, §3

[1] = biological target: Burkholderia cenocepacia purified FtsZ protein (Burkholderia cenocepacia, UniProt B4E5Y7); experiment: biochemical; type: biochemical; details: for Inhibition of Bc FtsZ At 100 μM: 100 μM compound; for Inhibition of Bc FtsZ At 100 μM / Inhibits B. cenocepacia FtsZ GTPase at 100µM?: Yes/No; for Inhibits B. cenocepacia FtsZ GTPase at 100µM?: Supplementary Table 1
Burkholderia cenocepacia purified FtsZ protein, sequence (B4E5Y7 entry or part of it): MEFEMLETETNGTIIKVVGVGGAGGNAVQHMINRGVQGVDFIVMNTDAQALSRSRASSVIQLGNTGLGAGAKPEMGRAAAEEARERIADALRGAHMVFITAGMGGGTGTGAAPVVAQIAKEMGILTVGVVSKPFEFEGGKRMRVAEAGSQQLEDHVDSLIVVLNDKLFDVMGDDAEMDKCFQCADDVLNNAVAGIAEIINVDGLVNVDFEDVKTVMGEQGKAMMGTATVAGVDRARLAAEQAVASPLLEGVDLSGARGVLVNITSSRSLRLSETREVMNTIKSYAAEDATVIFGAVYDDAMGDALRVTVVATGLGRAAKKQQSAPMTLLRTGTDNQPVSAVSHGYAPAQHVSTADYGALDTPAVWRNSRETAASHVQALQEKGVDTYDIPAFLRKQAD
Procedure: All the recombinant FtsZ proteins were expressed at 20°C overnight in E. coli BL21(DE3) cells, upon induction with 0.5 mM IPTG, and purified using the same protocol assessed for the wild-type B. cenocepacia FtsZ (Hogan et al., [2018]).
GTPase enzyme activity was determined using a pyruvate kinase/L-lactic dehydrogenase (PK/LDH) spectrophotometric coupled assay (Ingerman and Nunnari, [2005]). The assays were performed at 30°C, in a reaction mixture containing […] Hepes pH 7.5, 5 mM MgCl2, 5 mM KCl, 10 U PK/LDH, 0.25 mM NADH, 0.25 mM PEP, and 5–10 μM FtsZ, and initiated by the addition of 0.5 mM GTP. Alternatively, GTPase activity was determined by measuring the release of phosphate using the malachite green assay (Baykov et al., [1988]).
(1) A[I]=A[0]×(1-[I]/[I]+IC50)
where A[I] is the enzyme activity at inhibitor concentration [I] and A[0] is the enzyme activity without inhibitor.

B. cenocepacia J2315 = experiment: MIC, 2-fold microdilution, resazurin method; type: cell-based, Burkholderia cenocepacia; details: for MIC: Burkholderia cenocepacia; for activity compared with C109, in words: SAR statements, against both bacteria and the purified enzyme
Procedure: as §1, §2, §3

[2] = LB, 24 h, read-out: MIC P. aeruginosa PAO1
[3] = Supplementary Table 1, read-out: MIC (µg/ml) P. aeruginosa PAO1
[4] = LB, 24 h, read-out: MIC E. coli 25922
[5] = Supplementary Table 1, read-out: MIC (µg/ml) E. coli 25922
[6] = LB, 24 h, read-out: MIC S. aureus 25923
[7] = Supplementary Table 1, read-out: MIC (µg/ml) S. aureus 25923
[8] = J2315, LB, 48 h, read-out: MIC B. cenocepacia J2315
[9] = J2315, Supplementary Table 1, read-out: MIC (µg/ml) B. cenocepacia J2315

| SMILES | MIC (P. aeruginosa PAO1; [2]) | MIC (P. aeruginosa PAO1; [3]) | MIC (E. coli ATCC 25922; [4]) | MIC (E. coli ATCC 25922; [5]) | MIC (S. aureus ATCC 25923; [6]) | MIC (S. aureus ATCC 25923; [7]) | IC50 [1] | Inhibition of Bc FtsZ At 100 μM [1] | Inhibits B. cenocepacia FtsZ GTPase at 100µM? [1] | MIC (B. cenocepacia J2315; [8]) | MIC (B. cenocepacia J2315; [9]) | melting point | activity compared with C109, in words (B. cenocepacia J2315) | spectrum of activity, in words (S. aureus ATCC 25923) | MIC (B. cenocepacia J2315; J2315, 48 h, read-out: MIC B. cenocepacia J2315) | MIC (B. cenocepacia J2315; J2315, read-out: MIC (µg/ml) B. cenocepacia J2315) |
| --- | --- | --- | --- | --- | --- | --- | --- | --- | --- | --- | --- | --- | --- | --- | --- | --- |
| CCOC(=O)CSc1c(C)cc2nsnc2c1[N+](=O)[O-] [compound 11926142] | > 256 µg/mL | > 256 µg/mL | > 256 µg/mL | > 256 µg/mL | 32 µg/mL (≈ 102 µM) | 32 µg/mL (≈ 102 µM) | 100 µM | Yes | Yes | > 256 µg/mL | > 256 µg/mL | 181 to 183 °C |  |  |  |  |
| CCOC(=O)C(C)Sc1ccc2nsnc2c1[N+](=O)[O-] (centres unmarked) [compound 11826110] | > 256 µg/mL | > 256 µg/mL | 32 µg/mL (≈ 102 µM) | 32 µg/mL (≈ 102 µM) | 32 µg/mL (≈ 102 µM) | 32 µg/mL (≈ 102 µM) | > 100 µM | No | No | 16 µg/mL (≈ 51.1 µM) | 16 µg/mL (≈ 51.1 µM) | 153 to 155 °C | partially lost activity |  |  |  |
| O=[N+]([O-])c1c(Sc2ncc[nH]2)ccc2nsnc12 [compound 11726256] | > 256 µg/mL | > 256 µg/mL | 128 µg/mL (≈ 458 µM) | 128 µg/mL (≈ 458 µM) | 8 µg/mL (≈ 28.6 µM) | 8 µg/mL (≈ 28.6 µM) | > 100 µM |  | Yes | 128 µg/mL (≈ 458 µM) | 256 µg/mL (≈ 917 µM) | 213 to 215 °C |  | showed activity only against S. aureus |  |  |
| COc1cc(SC#N)c2nsnc2c1[N+](=O)[O-] [compound 11126009] | > 128 µg/mL | > 128 µg/mL | > 512 µg/mL | > 512 µg/mL | 8 µg/mL (≈ 29.8 µM) | 8 µg/mL (≈ 29.8 µM) | 4 µM | Yes | Yes | > 128 µg/mL | > 128 µg/mL | 143 to 145 °C |  | showed activity only against S. aureus |  |  |
| COC(=O)CS(=O)(=O)c1ccc2nsnc2c1[N+](=O)[O-] [compound 11826109] | > 256 µg/mL | > 256 µg/mL | 128 µg/mL (≈ 403 µM) | 128 µg/mL (≈ 403 µM) | 16 µg/mL (≈ 50.4 µM) | 16 µg/mL (≈ 50.4 µM) | 30 µM | Yes | Yes | 256 µg/mL (≈ 807 µM) | 256 µg/mL (≈ 807 µM) | 123 to 125 °C | loss of activity |  |  |  |
| CCOc1cc(SC#N)c2nsnc2c1[N+](=O)[O-] [compound 11026177] | 64 µg/mL (≈ 227 µM) | 64 µg/mL (≈ 227 µM) | > 512 µg/mL | > 512 µg/mL | 4 µg/mL (≈ 14.2 µM) | 4 µg/mL (≈ 14.2 µM) | 19 µM | Yes | Yes | > 512 µg/mL | > 512 µg/mL | 128 to 129 °C |  | showed activity only against S. aureus |  |  |
| CC(C)Oc1cc(SC#N)c2nsnc2c1[N+](=O)[O-] [compound 11126010] | > 128 µg/mL | > 128 µg/mL | > 512 µg/mL | > 512 µg/mL | 4 µg/mL (≈ 13.5 µM) | 4 µg/mL (≈ 13.5 µM) | 15 µM | Yes | Yes | > 128 µg/mL | > 128 µg/mL | 116 to 118 °C |  | showed activity only against S. aureus |  |  |
| CN(C)C(=S)Sc1ccc2nsnc2c1[N+](=O)[O-] [compound 10126130] | > 128 µg/mL | > 128 µg/mL | 512 µg/mL (≈ 1700 µM) | 512 µg/mL (≈ 1700 µM) | 32 µg/mL (≈ 107 µM) | 32 µg/mL (≈ 107 µM) | 10 µM | Yes | Yes | > 128 µg/mL | > 128 µg/mL | 137 to 139 °C |  |  |  |  |
| CCOC(=O)CCSc1ccc2nsnc2c1[N+](=O)[O-] [compound 10226047] | > 128 µg/mL | > 128 µg/mL | > 512 µg/mL | > 512 µg/mL | > 512 µg/mL | > 512 µg/mL |  | No | No | > 512 µg/mL | > 512 µg/mL | 89 to 91 °C | completely loss of activity |  |  |  |
| COC(=O)C[S+]([O-])c1ccc2nsnc2c1[N+](=O)[O-] (centres unmarked) [compound 11726257] | 128 µg/mL (≈ 425 µM) | 128 µg/mL (≈ 425 µM) | 8 µg/mL (≈ 26.6 µM) | 8 µg/mL (≈ 26.6 µM) | 8 µg/mL (≈ 26.6 µM) | 8 µg/mL (≈ 26.6 µM) | 3 µM | Yes | Yes | 16 µg/mL (≈ 53.1 µM) | 16 µg/mL (≈ 53.1 µM) | 179 to 181 °C | activity on B. cenocepacia similar to C109 |  |  |  |
| O=C(O)CSc1ccc2nsnc2c1[N+](=O)[O-] [compound 11426177] |  |  | > 512 µg/mL | > 512 µg/mL | 256 µg/mL (≈ 944 µM) | 256 µg/mL (≈ 944 µM) |  | No | No | > 128 µg/mL | > 128 µg/mL | 215 to 217 °C | not active against B. cenocepacia |  |  |  |
| CCCCCSc1ccc2nsnc2c1[N+](=O)[O-] [compound 10726015] | > 128 µg/mL | > 128 µg/mL | > 512 µg/mL | > 512 µg/mL | 512 µg/mL (≈ 1810 µM) | 512 µg/mL (≈ 1810 µM) |  | No | No | > 64 µg/mL | > 64 µg/mL | 116 to 118 °C |  |  |  |  |
| COC(=O)CSc1cc(SCC(=O)OC)c2nsnc2c1[N+](=O)[O-] [compound 11726258] | > 256 µg/mL | > 256 µg/mL | > 256 µg/mL | > 256 µg/mL | 256 µg/mL (≈ 657 µM) | 256 µg/mL (≈ 657 µM) | 15 µM | Yes | Yes | 256 µg/mL (≈ 657 µM) | 256 µg/mL (≈ 657 µM) | 141 to 143 °C |  |  |  |  |
| N#CSc1cc(-c2ccc([N+](=O)[O-])cc2)c2nsnc2c1[N+](=O)[O-] [compound 11026176] | > 128 µg/mL | > 128 µg/mL | > 512 µg/mL | > 512 µg/mL | 4 µg/mL (≈ 11.1 µM) | 4 µg/mL (≈ 11.1 µM) | 17 µM | Yes | Yes |  |  |  |  | showed activity only against S. aureus | > 512 µg/mL | > 512 µg/mL |
| CCOC(=O)CNc1ccc2nsnc2c1[N+](=O)[O-] [compound 11726042] |  |  | > 512 µg/mL | > 512 µg/mL | > 256 µg/mL | > 256 µg/mL |  | No | No | > 256 µg/mL | > 256 µg/mL | 169 to 171 °C | completely loss of activity |  |  |  |
| COC(=O)CSc1c(C)cc2nsnc2c1[N+](=O)[O-] [compound 11926141] | > 256 µg/mL | > 256 µg/mL | > 256 µg/mL | > 256 µg/mL | 32 µg/mL (≈ 107 µM) | 32 µg/mL (≈ 107 µM) | 100 µM | Yes | Yes | > 256 µg/mL | > 256 µg/mL | 172 to 174 °C |  |  |  |  |
| CCOC(=O)COc1ccc2nsnc2c1[N+](=O)[O-] [compound 11726041] |  |  | > 512 µg/mL | > 512 µg/mL | > 256 µg/mL | > 256 µg/mL |  | No | No | > 256 µg/mL | > 256 µg/mL | 131 to 133 °C | completely loss of activity |  |  |  |
